# Experiment: Estimation of residue content in Solvent Blue 67 dye by filtration of the dye solution in organic solvent
# Format: physicochemical
# Method: For the preparation of Solvent Blue 67, chlorosulfonation is carried out in a vessel by reacting chlorosulfonic acid with 300 g of crude copper phthalocyanine blue (CPC) in presence of acid chloride followed by the process of drowning, filtration, homogenization, condensation, clarification, filtration, spin flash drying, airclassifying and sieving to retrieve the final product. The final product obtained is 560 g to 600 g of Solvent Blue 67 with purity 100%+5% coloristic value. Further, the estimation of residue content is determined by filtration process of prepared Solvent Blue 67 dye using organic solvent and the weight of residue is calculated.
# An adequate quantity of Solvent Blue 67 of about 20 g to 60 g is dissolved in 50 ml to 150 ml of alkyl ester (or alkyl ketonic organic solvent) based on end process in a glass beaker. […]
# The resultant dye solution is filtered through a filtration assembly. […] The residue left in the beaker is quantitatively transferred to the filter using 20 ml to 30 ml of alkyl ester (or alkyl ketonic organic solvent) and the filtrate is further washed with 15 to 25 ml of the same solvent to make it colour free. […] The weight of residue is calculated as weights of before and after filtration and expressed in PPM. […]
substance,measurement,setting,value
Solvent Blue 67,residue content,"Example 1, after clarification 225 (circulated in filter of 10 to 100 mesh up to 24 hrs), cake dried",below 40 PPM
same,presence of residue (FIGS. 2a and 2b),"dye dissolved in alkyl ester or alkyl ketonic organic solvent, filtered through 20 to 50 micron stainless-steel mesh",does not show presence of any amount of residue

# — patent US20260242606A1, “PROCESS OF PREPARATION OF RESIDUE FREE SOLVENT BLUE 67 DYE” (RATHI DYE CHEM (P) LTD, priority 2023, published 2026)
